PubChem BioAssay AID2060625 (Molecular Pharmacology Branch, DTP, NCI, 2025)

Test system: 186277-243-T-J2-PDC spheroids with HUVEC/MSC, viability
Test: Anticancer human tumor 186277-243-T-J2-PDC patient-derived colon adenocarcinoma cell line growth inhibition [CLK]
Details: for IC50: curve of first compound; for viability, T/C: stronger effect = lower value; active = viability on the fitted dose curve at most 10% of control; inactive = the rest
Method in brief: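 Multi-cell-type spheroids combined patient-derived tumor cells with HUVEC endothelial cells and human mesenchymal stem cells. Paired agents were dosed in half-log steps down from about clinical Cmax, or from 10 microM where Cmax was unknown.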
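Also: compound exposure lasted seven days before readout.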
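For viability, T/C in this document: 100% = DMSO vehicle control wells.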

NC(=O)C(=Cn1cnc(-c2cc(C(F)(F)F)cc(C(F)(F)F)c2)n1)c1cncnc1 + CNC(=O)c1ccc(Nc2nc(OC3CCCC3)c3c(-c4ccc5nc(C)oc5c4)c[nH]c3n2)c(OC)c1
46 nM: IC50 (second compound 0.1 µM)
active: viability, T/C (second compound 0.0316 µM, first compound 0.3 µM) 7.94% | viability, T/C (second compound 0.0316 µM, first compound 0.949 µM) 3.02% | viability, T/C (second compound 0.0316 µM, first compound 3 µM) 5.16% | viability, T/C (second compound 0.1 µM, first compound 0.3 µM) 6.58% | viability, T/C (second compound 0.1 µM, first compound 0.949 µM) 3.16% | viability, T/C (second compound 0.1 µM, first compound 3 µM) 2.39% | viability, T/C (second compound 0.316 µM, first compound 0.3 µM) 2.14% | viability, T/C (second compound 0.316 µM, first compound 0.949 µM) 2.54% | viability, T/C (second compound 0.316 µM, first compound 3 µM) 1.77% | viability, T/C (second compound 1 µM, first compound 0.3 µM) 2.4% | viability, T/C (second compound 1 µM, first compound 0.949 µM) 1.17% | viability, T/C (second compound 1 µM, first compound 3 µM) 2.9% | viability, T/C (second compound 3.16 µM, first compound 0.0949 µM) 3.89% | viability, T/C (second compound 3.16 µM, first compound 0.3 µM) 0.59% | viability, T/C (second compound 3.16 µM, first compound 0.949 µM) 2.87% | viability, T/C (second compound 3.16 µM, first compound 3 µM) 3.05% | viability, T/C (second compound 10 µM, first compound 0.0949 µM) 4.11% | viability, T/C (second compound 10 µM, first compound 0.3 µM) 4.12% | viability, T/C (second compound 10 µM, first compound 0.949 µM) 0.92% | viability, T/C (second compound 10 µM, first compound 3 µM) 1.85%
< 9.49 nM: IC50 (second compound 0.316 µM) | IC50 (second compound 1 µM) | IC50 (second compound 3.16 µM) | IC50 (second compound 10 µM)
inactive: viability, T/C (second compound 0.0316 µM, first compound 0.00949 µM) 88.5% | viability, T/C (second compound 0.0316 µM, first compound 0.03 µM) 84.2% | viability, T/C (second compound 0.0316 µM, first compound 0.0949 µM) 79.1% | viability, T/C (second compound 0.1 µM, first compound 0.00949 µM) 54.5% | viability, T/C (second compound 0.1 µM, first compound 0.03 µM) 55.2% | viability, T/C (second compound 0.1 µM, first compound 0.0949 µM) 42.1% | viability, T/C (second compound 0.316 µM, first compound 0.00949 µM) 36.4% | viability, T/C (second compound 0.316 µM, first compound 0.03 µM) 37.7% | viability, T/C (second compound 0.316 µM, first compound 0.0949 µM) 17.6% | viability, T/C (second compound 1 µM, first compound 0.00949 µM) 25.6% | viability, T/C (second compound 1 µM, first compound 0.03 µM) 24.7% | viability, T/C (second compound 1 µM, first compound 0.0949 µM) 7.44% | viability, T/C (second compound 3.16 µM, first compound 0.00949 µM) 26.8% | viability, T/C (second compound 3.16 µM, first compound 0.03 µM) 24.6% | viability, T/C (second compound 10 µM, first compound 0.00949 µM) 28.3% | viability, T/C (second compound 10 µM, first compound 0.03 µM) 24.6%
152 nM: IC50 (second compound 0.0316 µM)

Nc1ccccc1NC(=O)c1ccc(CNC(=O)OCc2cccnc2)cc1 + CNC(=O)c1ccc(Nc2nc(OC3CCCC3)c3c(-c4ccc5nc(C)oc5c4)c[nH]c3n2)c(OC)c1
1510 nM: IC50 (second compound 0.316 µM)
active: viability, T/C (second compound 0.1 µM, first compound 10 µM) 4.98% | viability, T/C (second compound 0.316 µM, first compound 10 µM) 3.58% | viability, T/C (second compound 1 µM, first compound 10 µM) 1.52% | viability, T/C (second compound 3.16 µM, first compound 10 µM) 1.71% | viability, T/C (second compound 10 µM, first compound 10 µM) 0.98%
31.6 nM: IC50 (second compound 1 µM)
< 31.6 nM: IC50 (second compound 3.16 µM) | IC50 (second compound 10 µM)
inactive: viability, T/C (second compound 0.0316 µM, first compound 0.0316 µM) 106% | viability, T/C (second compound 0.0316 µM, first compound 0.1 µM) 107% | viability, T/C (second compound 0.0316 µM, first compound 0.316 µM) 93.3% | viability, T/C (second compound 0.0316 µM, first compound 1 µM) 92.9% | viability, T/C (second compound 0.0316 µM, first compound 3.16 µM) 48% | viability, T/C (second compound 0.0316 µM, first compound 10 µM) 11% | viability, T/C (second compound 0.1 µM, first compound 0.0316 µM) 91.9% | viability, T/C (second compound 0.1 µM, first compound 0.1 µM) 96.8% | viability, T/C (second compound 0.1 µM, first compound 0.316 µM) 88% | viability, T/C (second compound 0.1 µM, first compound 1 µM) 104% | viability, T/C (second compound 0.1 µM, first compound 3.16 µM) 39.8% | viability, T/C (second compound 0.316 µM, first compound 0.0316 µM) 53.6% | viability, T/C (second compound 0.316 µM, first compound 0.1 µM) 60.2% | viability, T/C (second compound 0.316 µM, first compound 0.316 µM) 64.2% | viability, T/C (second compound 0.316 µM, first compound 1 µM) 82.2% | viability, T/C (second compound 0.316 µM, first compound 3.16 µM) 23% | viability, T/C (second compound 1 µM, first compound 0.0316 µM) 37.9% | viability, T/C (second compound 1 µM, first compound 0.1 µM) 38.8% | viability, T/C (second compound 1 µM, first compound 0.316 µM) 47.7% | viability, T/C (second compound 1 µM, first compound 1 µM) 54.1% | viability, T/C (second compound 1 µM, first compound 3.16 µM) 16.4% | viability, T/C (second compound 3.16 µM, first compound 0.0316 µM) 33.7% | viability, T/C (second compound 3.16 µM, first compound 0.1 µM) 38.2% | viability, T/C (second compound 3.16 µM, first compound 0.316 µM) 39% | viability, T/C (second compound 3.16 µM, first compound 1 µM) 41.2% | viability, T/C (second compound 3.16 µM, first compound 3.16 µM) 9.98% | viability, T/C (second compound 10 µM, first compound 0.0316 µM) 38.3% | viability, T/C (second compound 10 µM, first compound 0.1 µM) 32.1% | viability, T/C (second compound 10 µM, first compound 0.316 µM) 35.7% | viability, T/C (second compound 10 µM, first compound 1 µM) 35.3% | viability, T/C (second compound 10 µM, first compound 3.16 µM) 10.1%
2560 nM: IC50 (second compound 0.1 µM)
3050 nM: IC50 (second compound 0.0316 µM)
